Assay results taken from patent publication US20230072421A1, “TARGETED RADIOPHARMACEUTICALS FOR THE DIAGNOSIS AND TREATMENT OF PROSTATE CANCER” (Bayer AS, priority 2019, published 2023).

Tests used:
Format in all cases: cell-based
[1] = system: VCaP cells; assay: Cell proliferation assay (CellTiter-Glo, 5-day exposure), VCaP; details: 4000 cells/well, Th-227 labelled at 375 kBq/nmol, mean of 1 to 6 experiments
Description: (§1) Inhibition of cell proliferation of Thorium-227 labeled PMSA SMOL ligands was tested different prostate cancer cell lines, namely 22Rv1, VCaP, C4-2 (all from ATCC, Manassas, Va., USA) and LNCaP (DMSZ, Braunschweig). Cells were seeded using the following conditions in 384 well plates (Corning) in 30 μl of growth media at 4000 cells/well for VCaP cells and 1000 cells/well for 22Rv1, C4-2 and LNCaP cells.
(§2) Cells were cultivated an incubator at 37° C. and 5% C02 over night. […] In sister plates cell viability at treatment start (d=0) was determined using CellTiter-Glo® assay (CTG, Promega, Madison, Wis., USA), by adding 30 μl per well CTG solution, incubation for 10 min and reading of Luminescence in a PheraStarFSX instrument (BMG Labtech). After a 5-day exposure in the presenced of test compounds, cell viability of treated or untreated control cells was determined again using CellTiter-Glo® assay (Promega, Madison, Wis., USA). […] The DRC software is a Biobook Spreadsheet that was developed by Bayer AG and Bayer Business Services on the IDBS E-Workbook Suite platform (IDBS: ID Business Solutions Ltd., Guildford, UK).

[2] = system: C4-2 cells; assay: Cell proliferation assay (CellTiter-Glo, 5-day exposure), C4-2; details: C4-2, 1000 cells/well, Th-227 labelled at 375 kBq/nmol, mean of 1 to 6 experiments
Description: as §1, §2

[3] = system: 22Rv1 cells; assay: Cell proliferation assay (CellTiter-Glo, 5-day exposure), 22Rv1; details: 22Rv1, 1000 cells/well, Th-227 labelled at 375 kBq/nmol, mean of 1 to 6 experiments
Description: as §1, §2

| Compound | Proliferation assay on cancer cell lines by TTCs Default Pivot #3 IC50 [kBq/mL] VCap 4000cells 375kBq/nmol (mean) [1] | Proliferation assay on cancer cell lines by TTCs Default Pivot #3 IC50 [kBq/mL] C4-2 1000cells 375kBq/nmol (mean) [2] | Proliferation assay on cancer cell lines by TTCs Default Pivot #3 IC50 [kBq/mL] 22Rv1 1000cells 375kBq/nmol (mean) [3] |
| --- | --- | --- | --- |
| Cc1cc(C(=O)NCCN(CCCN(CCNC(=O)c2cc(C)n(CC(=O)NCC3CCC(C(=O)NC(Cc4ccc5ccccc5c4)C(=O)NCCCCC(NC(=O)NC(CCC(=O)O)C(=O)O)C(=O)O)CC3)c(=O)c2[O-])CCNC(=O)c2cc(C)n(CC(=O)NCC3CCC(C(=O)NC(Cc4ccc5ccccc5c4)C(=O)NCCCCC(NC(=O)NC(CCC(=O)O)C(=O)O)C(=O)O)CC3)c(=O)c2[O-])CCNC(=O)c2cc(C)n(CC(=O)NCC3CCC(C(=O)NC(Cc4ccc5ccccc5c4)C(=O)NCCCCC(NC(=O)NC(CCC(=O)O)C(=O)O)C(=O)O)CC3)c(=O)c2[O-])c([O-])c(=O)n1CC(=O)O.[227Th+4] (stereo not drawn) [1-C trimer-227Th] | 3.11 kBq/mL | 2.24 kBq/mL | 0.74 kBq/mL |
| CNc1cc(CC(NC(=O)C2CCC(CNC(=O)Cn3c(C)cc(C(=O)NCCN(CCCN(CCNC(=O)c4cc(C)n(CC(=O)O)c(=O)c4[O-])CCNC(=O)c4cc(C)n(CC(=O)NCC5CCC(C(=O)NC(Cc6cc(NC)c7ccccc7c6)C(=O)NCCCCC(NC(=O)NC(CCC(=O)O)C(=O)O)C(=O)O)CC5)c(=O)c4[O-])CCNC(=O)c4cc(C)n(CC(=O)O)c(=O)c4[O-])c([O-])c3=O)CC2)C(=O)NCCCCC(NC(=O)NC(CCC(=O)O)C(=O)O)C(=O)O)cc2ccccc12.[227Th+4] (stereo not drawn) [37-C dimer-227Th] | 1.53 kBq/mL | 0.48 kBq/mL | 1.06 kBq/mL |
| Cc1cc(C(=O)NCCN(CCCN(CCNC(=O)c2cc(C)n(CC(=O)O)c(=O)c2[O-])CCNC(=O)c2cc(C)n(CC(=O)NCC3CCC(C(=O)NC(Cc4cnc5ccccc5c4)C(=O)NCCCCC(NC(=O)NC(CCC(=O)O)C(=O)O)C(=O)O)CC3)c(=O)c2[O-])CCNC(=O)c2cc(C)n(CC(=O)O)c(=O)c2[O-])c([O-])c(=O)n1CC(=O)O.[227Th+4] (stereo not drawn) [Example 22-C monomer-227Th] | 2.01 kBq/mL | 0.43 kBq/mL | 0.72 kBq/mL |
| O=C([O-])CN1CCN(CC(=O)[O-])CCN(CC(=O)Nc2ccc(CC(=O)N[C@@H](Cc3ccc4ccccc4c3)C(=O)NCCCC[C@H](NC(=O)N[C@@H](CCC(=O)O)C(=O)O)C(=O)O)cc2)CCN(CC(=O)[O-])CC1.[227Th+4] [Example 23-B-227Th, [^227Th]Thorium-(4S,11S,15S)-4-[(naphthalen-2-yl)methyl]-2,5,13-trioxo-1-[4-(2-{4,7,10-tris[(carboxy-kappaO)methyl]-1,4,7,10-tetraazacyclododecan-1-yl-kappa^4N^1,N^4,N^7,N^10}acetamido)phenyl]-3,6,12,14-tetraazaheptadecane-11,15,17-tricarboxylate] | 3 kBq/mL | 1.32 kBq/mL | 0.96 kBq/mL |
| O=C([O-])CN1CCN(CC(=O)[O-])CCN(CC(=O)NCc2ccc(C(=O)N[C@@H](Cc3ccc4ccccc4c3)C(=O)NCCCC[C@H](NC(=O)N[C@@H](CCC(=O)O)C(=O)O)C(=O)O)cc2)CCN(CC(=O)[O-])CC1.[227Th+4] [Example 24-B-227Th, [^227Th]Thorium (3S,10S,14S)-3-[(naphthalen-2-yl)methyl]-1,4,12-trioxo-1-{4-[(2-{4,7,10-tris[(carboxy-kappaO)methyl]-1,4,7,10-tetraazacyclododecan-1-yl-kappa^4N^1,N^4,N^7,N^10}acetamido)methyl]phenyl}-2,5,11,13-tetraazahexadecane-10,14,16-tricarboxylate] | 0.68 kBq/mL | 0.12 kBq/mL | 0.56 kBq/mL |
| O=C([O-])CN1CCN(CC(=O)[O-])CCN(CC(=O)NCc2ccc(C(=O)N[C@@H](Cc3ccc4ccccc4c3)C(=O)NCCCC[C@H](NC(=O)N[C@@H](CCC(=O)O)C(=O)O)C(=O)O)nc2)CCN(CC(=O)[O-])CC1.[227Th+4] [Example 25-B-227Th, [^227Th]Thorium (3S,10S,14S)-3-[(naphthalen-2-yl)methyl]-1,4,12-trioxo-1-{5-[(2-{4,7,10-tris[(carboxy-kappaO)methyl]-1,4,7,10-tetraazacyclododecan-1-yl-kappa^4N^1,N^4,N^7,N^10}acetamido)methyl]pyridin-2-yl}-2,5,11,13-tetraazahexadecane-10,14,16-tricarboxylate] | 1.51 kBq/mL | 0.1 kBq/mL | 0.73 kBq/mL |
| O=C([O-])CN1CCN(CC(=O)[O-])CCN(CC(=O)NCc2ccc(C(=O)N[C@@H](Cc3ccc4ccccc4c3)C(=O)NCCCC[C@H](NC(=O)N[C@@H](CCC(=O)O)C(=O)O)C(=O)O)cn2)CCN(CC(=O)[O-])CC1.[227Th+4] [Example 26-B-227Th, [^227Th]Thorium (3S,10S,14S)-3-[(naphthalen-2-yl)methyl]-1,4,12-trioxo-1-{6-[(2-{4,7,10-tris[(carboxy-kappaO)methyl]-1,4,7,10-tetraazacyclododecan-1-yl-kappa^4N^1,N^4,N^7,N^10}acetamido)methyl]pyridin-3-yl}-2,5,11,13-tetraazahexadecane-10,14,16-tricarboxylate] | 1.15 kBq/mL | 0.12 kBq/mL | 0.87 kBq/mL |
| O=C([O-])CN1CCN(CC(=O)[O-])CCN(CC(=O)NCc2cccc(C(=O)N[C@@H](Cc3ccc4ccccc4c3)C(=O)NCCCC[C@H](NC(=O)N[C@@H](CCC(=O)O)C(=O)O)C(=O)O)c2)CCN(CC(=O)[O-])CC1.[227Th+4] [Example 27-B-227Th, [^227Th]Thorium (3S,10S,14S)-3-[(naphthalen-2-yl)methyl]-1,4,12-trioxo-1-{3-[(2-{4,7,10-tris[(carboxy-kappaO)methyl]-1,4,7,10-tetraazacyclododecan-1-yl-kappa^4N^1,N^4,N^7,N^10}acetamido)methyl]phenyl}-2,5,11,13-tetraazahexadecane-10,14,16-tricarboxylate] | 0.73 kBq/mL | 0.08 kBq/mL | 0.65 kBq/mL |
| O=C([O-])CN1CCN(CC(=O)[O-])CCN(CC(=O)Nc2ccc(-c3ccn(CC(=O)N[C@@H](Cc4ccc5ccccc5c4)C(=O)NCCCC[C@H](NC(=O)N[C@@H](CCC(=O)O)C(=O)O)C(=O)O)n3)cc2)CCN(CC(=O)[O-])CC1.[227Th+4] [Example 28-B-227Th, [^227Th]Thorium (4S,11S,15S)-4-[(naphthalen-2-yl)methyl]-2,5,13-trioxo-1-{3-[4-(2-{4,7,10-tris[(carboxy-kappaO)methyl]-1,4,7,10-tetraazacyclododecan-1-yl-kappa^4N^1,N^4,N^7,N^10}acetamido)phenyl]-1H-pyrazol-1-yl}-3,6,12,14-tetraazaheptadecane-11,15,17-tricarboxylate] | 4.77 kBq/mL | 2.22 kBq/mL | 1.22 kBq/mL |
| [^227Th]Thorium-{N^6-[3-(quinolin-2-yl)-N-{(1r,4S)-4-[(2-{4,7,10-tris[(carboxy-kappaO)methyl]-1,4,7,10-tetraazacyclododecan-1-yl-kappa^4N^1,N^4,N^7,N^10}acetamido)methyl]cyclohexane-1-carbonyl}-L-alanyl]-N^2-{[(1S)-1,3-dicarboxypropyl]carbamoyl}-L-lysinate} [Example 17-B-227Th] | 0.73 kBq/mL | 0.15 kBq/mL | 0.8 kBq/mL |
